In article PMC2229062 (The Journal of General Physiology, 1991):

System: GK (G protein coupled to the muscarinic K+ channel IK.ACh)
Experiment: inside-out patch clamp, inhibition of GTP-induced IK.ACh openings, Hill fit
Assay type: biochemical, Cavia porcellus
Conditions: no agonist; against 10 µM GTP; same; assumed competitive with GTP

Nc1nc2c(ncn2[C@@H]2O[C@H](COP(=O)(O)OP(=O)(O)O)[C@@H](O)[C@H]2O)c(=O)[nH]1 [GDP]
IC50: 510 nM
